# Square brackets hold non-standard residues; d marks the D form. Peptide text beside a SMILES is read from it. * marks the point of attachment. pY = N[C@@H](Cc1ccc(OP(=O)(O)O)cc1)C(=O)O; Hydrocinnamoyl = O=C(CCc1ccccc1)*; Ac6c = NC1(C(=O)O)CCCCC1; Cbz = O=C(OCc1ccccc1)*
# Molecular target: T1, Growth factor receptor-bound protein 2 (Homo sapiens, UniProt P62993)
# Test: Binding affinity to Grb2 SH2 domain (unknown origin) by isothermal titration calorimetry
# Target sequence in this assay (P62993 whole entry, looked up, the tested form may be a part): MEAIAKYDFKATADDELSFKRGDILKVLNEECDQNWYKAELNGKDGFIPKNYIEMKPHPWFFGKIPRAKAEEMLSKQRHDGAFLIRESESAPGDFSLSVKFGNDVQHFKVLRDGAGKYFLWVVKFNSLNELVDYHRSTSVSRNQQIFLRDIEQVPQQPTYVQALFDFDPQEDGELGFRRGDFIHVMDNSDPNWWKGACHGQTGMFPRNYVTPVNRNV
row,SMILES,Ka
1,NC(=O)C[C@H](NC(=O)C1(NC(=O)[C@H](Cc2ccc(OP(=O)(O)O)cc2)NC(=O)CCc2ccccc2)CCCCC1)C(N)=O (Hydrocinnamoyl-[pY]-[Ac6c]-Asn-NH2),23.4 ×10⁶ /M
2,Cn1cc(CCC(=O)N[C@@H](Cc2ccc(OP(=O)(O)O)cc2)C(=O)NC2(C(=O)N[C@@H](CC(N)=O)C(N)=O)CCCCC2)c2ccccc21,11.4 ×10⁶ /M
3,CC(=O)N[C@@H](Cc1ccc(OP(=O)(O)O)cc1)C(=O)NC1(C(=O)N[C@@H](CC(N)=O)C(N)=O)CCCCC1 (HELM PEPTIDE1{[ac].[O=C([C@H](Cc1ccc(OP(=O)(O)O)cc1)N[*:1])[*:2]].[O=C(C1(N[*:1])CCCCC1)[*:2]].N.[am]}$$$$V2.0),7 ×10⁶ /M
4,NC(=O)C[C@H](NC(=O)C1(NC(=O)[C@H](Cc2ccc(OP(=O)(O)O)cc2)NC(=O)OCc2cccc(N)c2)CCCCC1)C(N)=O,8.8 ×10⁶ /M
5,NC(=O)C[C@H](NC(=O)C1(NC(=O)[C@H](Cc2ccc(OP(=O)(O)O)cc2)NC(=O)OCc2ccccc2)CCCCC1)C(N)=O (Cbz-[pY]-[Ac6c]-Asn-NH2),6.5 ×10⁶ /M
6,NC(=O)C[C@H](NC(=O)C1(NC(=O)[C@H](Cc2ccc(OP(=O)(O)O)cc2)NC(=O)CCC2CCCCC2)CCCCC1)C(N)=O,28.8 ×10⁶ /M

# Molecular target: T1, Growth factor receptor-bound protein 2
# Test: Binding affinity to Grb2 SH2 domain (60 to 151) (unknown origin) expressed in Escherichia coli BL21(DE3) after overnight incubation by ELISA
# Target sequence in this assay (P62993 whole entry, the tested form may be a part): as the sequence (P62993 whole entry, looked up, the tested form may be a part) above
row,SMILES,IC50
1,C[C@](NC(=O)[C@H](Cc1ccc(OP(=O)(O)O)cc1)NC(=O)OCc1cccc(N)c1)(C(=O)N[C@@H](CC(N)=O)C(N)=O)c1ccc(OP(=O)(O)O)cc1,13 nM
